# According to US8106077B2, “Compounds and methods for modulating FXR” (Eli Lilly and Company, priority 2007, dated 2012):
# Legend:
# FXR = target: T1, FXR (Homo sapiens, UniProt Q96RI1); assay: bDNA assay for SHP mRNA; format: cell-based; conditions: human hepatocarcinoma Huh7 cells, 24 hours, bDNA signal; read-out: SHP gene activation EC50
# T1 construct: Plate human hepatocarcinoma Huh7 cells grown in DMEM:F12 with 10% fetal bovine serum; endogenous in cells; host or cells: Huh7 (human hepatocarcinoma)
# T1 sequence (Q96RI1 1-486): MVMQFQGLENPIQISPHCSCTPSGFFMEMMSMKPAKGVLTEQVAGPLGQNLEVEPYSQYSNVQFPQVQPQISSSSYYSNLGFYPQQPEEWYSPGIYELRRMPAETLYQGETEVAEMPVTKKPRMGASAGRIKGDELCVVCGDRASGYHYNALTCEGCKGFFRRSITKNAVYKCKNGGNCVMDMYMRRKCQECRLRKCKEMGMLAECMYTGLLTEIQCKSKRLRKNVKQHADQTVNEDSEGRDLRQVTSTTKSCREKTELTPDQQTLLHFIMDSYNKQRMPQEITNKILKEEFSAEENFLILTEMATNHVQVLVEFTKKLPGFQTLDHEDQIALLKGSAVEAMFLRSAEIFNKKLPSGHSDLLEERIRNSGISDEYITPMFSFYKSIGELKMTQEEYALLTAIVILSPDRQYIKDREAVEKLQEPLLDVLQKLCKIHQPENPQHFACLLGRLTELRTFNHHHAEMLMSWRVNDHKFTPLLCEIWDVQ
# Description: FXR is a key, direct transcriptional regulator of the Small Heterodimer Partner (SHP) gene, accession number NM_021969, an atypical member of the nuclear receptor family that lacks a DNA-binding domain. SHP interacts with several conventional and orphan members of the nuclear receptor superfamily, including retinoid receptors and thyroid hormone receptor. SHP inhibits transactivation potential of superfamily members with which it interacts. […] Since FXR directly transactivates transcription of the SHP gene, the SHP branched DNA method (bDNA) quantitates FXR activation by ligands. Thus, increased expression of SHP mRNA, as determined by increase bDNA signal, signifies engagement of FXR by an agonist.
# Plate human hepatocarcinoma Huh7 cells grown in DMEM:F12 with 10% fetal bovine serum and in 96 well plate at the density of 1×10^5/well. After overnight incubation, treat the cells with test compounds at various concentrations for 24 hours. […]
# Incubate the lysis buffer for 15-minute at 37° C., then transfer 100 μL of the lysate from each well to the corresponding wells of the capture plate. […] Label the mRNA to be measured by addition of 100 μL QuantiGene® label probe working buffer then incubate for 60 minutes at 46° C. […] Incubate the plates at 37° C. for up to 30 minutes and then read on a luminometer (Packard Fusion Alpha, 1 second detection) to detect the luminescent signal. […]
# LDLR−/− mice = assay: LDLR−/− serum lipid modulation; format: in vivo; conditions: male LDLR−/− mice on western diet, 10 mg/kg, oral gavage once daily for seven days
# Protocol: Acclimate animals for two weeks prior to study initiation. House mice individually in polycarbonate cages with filter tops, and maintain mice on a 12:12 hour light-dark cycle (lights on at 6:00 AM) at 21° C. Provide deionized water ad libitum and maintain for two weeks on ‘western diet’ TD 88137 Diet (42% fat, 0.15% cholesterol, Harlan Teklad) ad libitum. Optimize groups of five ten-week-old male LDLR−/− mice based on serum triglyceride and cholesterol levels. Dose groups once daily by oral gavage with various doses of the test compound dissolved in 5% EtOH/5% Solutol in NaCMC (1%), SLS (0.5%), antifoam (0.05%), Povidone (0.085%) for seven days. At the end of the seven-day dosing period, collect blood by cardiac puncture after asphyxiation in a CO2 chamber. […] Lipoproteins were separated by fast protein liquid chromatography, and cholesterol was quantitated with an in-line detection system. […] The colored product produced in the presence of cholesterol was monitored in the flow stream at 505 nm, and the analog voltage from the monitor was converted to a digital signal for collection and analysis. The change in voltage corresponding to change in cholesterol concentration was plotted vs. time, and the area under the curve corresponding to the elution of VLDL-C and HDL-C was calculated using Turbochrome (version 4.12F12) software from PerkinElmer (Norwalk, Conn.). […]
Compound,EC50 (FXR) [nM],lowering of total cholesterol (LDLR−/− mice) [%],lowering of triglycerides (LDLR−/− mice) [%]
"Cc1cc(OCc2c(C(C)C)nnn2-c2c(Cl)cccc2Cl)ccc1N(C)Cc1ccc(C(=O)O)cc1 [Example 42, 4-[({4-[5-Isopropyl-3-(2,6-Dichloro-phenyl)-3H-[1,2,3]triazol-4-ylmethoxy]-2-methyl-phenyl}-methyl-amino)-methyl]-benzoic acid]",~370,,
"Cc1cc(CN(C)c2ccc(OCc3c(C(C)C)nnn3-c3c(Cl)cccc3Cl)cc2C)ccc1C(=O)O [Example 13, 4-[({4-[5-Isopropyl-3-(2,6-dichloro-phenyl)-3H-[1,2,3]triazol-4-ylmethoxy]-2-methyl-phenyl}-methyl-amino)-methyl]-2-methyl-benzoic acid]",,60,63
